Results on 12 compounds are retold here after patent US20260035389A1, “TETRAHYDROPYRIDOPYRIMIDINE PAN-KRAS INHIBITORS” (Mirati Therapeutics, Inc., priority 2020, published 2026).

What is called IC50 is the midpoint of a concentration-inhibition curve.

Molecules are shown by their SMILES.

Assay [1] concerns the target KRas^G12V (Homo sapiens, UniProt P01116, G12V). Put plainly: KRas binding assay (TR-FRET displacement).
Assay [2] has as its target KRas^Q61H (Homo sapiens, UniProt P01116, Q61H). Put plainly: biochemical.
The target of assay [3] is KRas^G12R (Homo sapiens, UniProt P01116, G12R). Put plainly: KRas binding assay (TR-FRET displacement).
Chain of KRas^G12R (P01116 1-169 isoform P01116-2 G12R): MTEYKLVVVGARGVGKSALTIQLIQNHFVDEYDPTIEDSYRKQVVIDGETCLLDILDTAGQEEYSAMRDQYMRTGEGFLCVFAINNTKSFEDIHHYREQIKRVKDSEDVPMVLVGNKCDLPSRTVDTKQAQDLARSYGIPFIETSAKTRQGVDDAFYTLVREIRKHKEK
The subject of assay [4] is ASPC1 cells. Put plainly: Cisbio HTRF Advanced pERK assay. As to conditions: AsPC-1 cells, 3 hrs, read-out: Inhibition (HTRF IC50 nM) of KRas-mediated Phosphorylation of ERK, AsPC-1. It is filed as cell-based.
The subject of assay [5] is H727 cells. Put plainly: Cisbio HTRF Advanced pERK assay. The assay is classed as cell-based. As to conditions: 3 hrs, read-out: Inhibition (HTRF IC50 nM) of KRas-mediated Phosphorylation of ERK, H727.
Assay [6] deals with MKN1 cells. Put plainly: Cisbio HTRF Advanced pERK assay. It is filed as cell-based. As to conditions: 3 hour, read-out: Inhibition (HTRF IC50 nM) of KRas-mediated Phosphorylation of ERK, MKN1. The procedure: (§1) Cisbio HTRF Advanced pERK Assay Catalog #64AERPEH • Cells: MKN1, PSN1 • Procedure: • Day 1: Seed 6,000 cells/well −25 μl/well in 384-well white solid bottom plate; RPM1_10% FBS.
(TR-FRET usually uses a lanthanide donor and a delayed reading to cut background.)

Assay [7] deals with PSN1 cells. Put plainly: Cisbio HTRF Advanced pERK assay. The assay is classed as cell-based. As to conditions: 3 hour, read-out: Inhibition (HTRF IC50 nM) of KRas-mediated Phosphorylation of ERK, PSN1. The procedure: as §1
In assay [8] the target is KRas^G13D (Homo sapiens, UniProt P01116, G13D). Put plainly: biochemical.
Chain of KRas^G13D (P01116 1-169 isoform P01116-2 G13D): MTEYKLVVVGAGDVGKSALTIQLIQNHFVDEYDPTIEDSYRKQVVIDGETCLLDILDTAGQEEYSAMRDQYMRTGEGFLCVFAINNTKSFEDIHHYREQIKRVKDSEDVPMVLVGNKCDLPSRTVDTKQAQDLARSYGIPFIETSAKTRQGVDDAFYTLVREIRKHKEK

Chain of KRas^G12V (P01116 1-169 isoform P01116-2 G12V): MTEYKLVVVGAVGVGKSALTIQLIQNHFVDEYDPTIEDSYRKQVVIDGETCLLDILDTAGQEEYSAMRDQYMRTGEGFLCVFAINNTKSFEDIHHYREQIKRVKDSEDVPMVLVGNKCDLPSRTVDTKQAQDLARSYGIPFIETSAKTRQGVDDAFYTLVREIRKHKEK
Chain of KRas^Q61H (P01116 1-169 isoform P01116-2 Q61H): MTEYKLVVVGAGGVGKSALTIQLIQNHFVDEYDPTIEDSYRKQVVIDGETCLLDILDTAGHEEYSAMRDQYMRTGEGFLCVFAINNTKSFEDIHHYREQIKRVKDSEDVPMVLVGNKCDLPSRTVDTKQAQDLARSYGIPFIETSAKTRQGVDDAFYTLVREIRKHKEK

`CCc1c(F)ccc2cc(O)cc(N3CCc4c(nc(OC[C@@]56CCCN5C[C@H](F)C6)nc4N4CCCn5nc(C(=O)N6CCCC6)cc5C4)C3)c12` [Example 191, (5-(7-(8-ethyl-7-fluoro-3-hydroxynaphthalen-1-yl)-2-(((2R,7aS)-2-fluorotetrahydro-1H-pyrrolizin-7a(5H)-yl)methoxy)-5,6,7,8-tetrahydropyrido[3,4-d]pyrimidin-4-yl)-5,6,7,8-tetrahydro-4H-pyrazolo[1,5-a][1,4]diazepin-2-yl)(pyrrolidin-1-yl)methanone] had an IC50 in assay [1] of at most 2 nM.
In assay [2], `CCc1cccc2cccc(N3CCc4c(nc(OCC56CCCN5CCC6)nc4N4CCCC(P(C)(C)=O)C4)C3)c12` (stereo not shown) [Example 112, (1-(7-(8-ethylnaphthalen-1-yl)-2-((tetrahydro-1H-pyrrolizin-7a(5H)-yl)methoxy)-5,6,7,8-tetrahydropyrido[3,4-d]pyrimidin-4-yl)piperidin-3-yl)dimethylphosphine oxide] registered an IC50 of 647 nM.
Consider `CCc1c(F)ccc2cc(O)cc(N3CCc4c(nc(OC[C@@]56CCCN5C[C@H](F)C6)nc4N4CCOCC(C)(O)C4)C3)c12` (stereo partly drawn) [Example 20, 4-(7-(8-ethyl-7-fluoro-3-hydroxynaphthalen-1-yl)-2-(((2R,7aS)-2-fluorohexahydro-1H-pyrrolizin-7a-yl)methoxy)-5,6,7,8-tetrahydropyrido[3,4-d]pyrimidin-4-yl)-6-methyl-1,4-oxazepan-6-ol], for which the IC50 in assay [3] is at most 2 nM.
Turning to `Oc1cc(N2CCc3c(nc(OC[C@@]45CCCN4C[C@H](F)C5)nc3N3CC4CC(O)CC3C4)C2)c2c(Cl)c(F)ccc2c1` (single isomer, unassigned) [Example 76], the IC50 was 2070 nM in assay [4], 1780 nM in assay [5] and 468 nM in assay [6].
For `CCc1c(F)ccc2cc(O)cc(N3CCc4c(nc(OC[C@@]56CCCN5C[C@H](F)C6)nc4N4CC5CC(O)CC4C5)C3)c12` (stereo partly drawn) [Example 35, 6-(7-(8-ethyl-7-fluoro-3-hydroxynaphthalen-1-yl)-2-(((2R,7aS)-2-fluorohexahydro-1H-pyrrolizin-7a-yl)methoxy)-5,6,7,8-tetrahydropyrido[3,4-d]pyrimidin-4-yl)-6-azabicyclo[3.2.1]octan-3-ol], the IC50 in assay [1] is at most 2 nM.
`Oc1cc(N2CCc3c(nc(OC[C@@]45CCCN4C[C@H](F)C5)nc3N3CC4CC(O)CC3C4)C2)c2c(Br)c(F)ccc2c1` (single isomer, unassigned) [Example 213]: the IC50 in assay [4] stood at 1740 nM; in assay [5] it was 1170 nM; in assay [6], 148 nM.
For the compound `Oc1cc(N2CCc3c(nc(OC[C@@]45CCCN4C[C@H](F)C5)nc3N3CC4CC(O)CC3C4)C2)c2c(Br)c(F)ccc2c1` (single isomer, unassigned) [Example 214], the IC50 in assay [4] is at least 10000 nM; in assay [5], 7430 nM; in assay [6], 1700 nM; in assay [7], at least 10000 nM.
As for `O=C1NC(=O)C2(CCCN(c3nc(OC[C@@]45CCCN4C[C@H](F)C5)nc4c3CCN(c3cc(O)cc5ccc(F)c(Cl)c35)C4)C2)N1` (stereo partly drawn) [Example 69, 7-(7-(8-chloro-7-fluoro-3-hydroxynaphthalen-1-yl)-2-(((2R,7aS)-2-fluorohexahydro-1H-pyrrolizin-7a-yl)methoxy)-5,6,7,8-tetrahydropyrido[3,4-d]pyrimidin-4-yl)-1,3,7-triazaspiro[4.5]decane-2,4-dione], the half-inhibitory concentration (IC50) in assay [1] was at most 2 nM.
`CCc1c(F)ccc2cc(O)cc(N3CCc4c(nc(OCC5(CN(C)C)CC5)nc4N4CCCn5nc(C(=O)N(C)C)cc5C4)C3)c12` [Example 203, 5-(2-((1-((dimethylamino)methyl)cyclopropyl)methoxy)-7-(8-ethyl-7-fluoro-3-hydroxynaphthalen-1-yl)-5,6,7,8-tetrahydropyrido[3,4-d]pyrimidin-4-yl)-N,N-dimethyl-5,6,7,8-tetrahydro-4H-pyrazolo[1,5-a][1,4]diazepine-2-carboxamide] returned an IC50 in assay [1] of at most 2 nM.
With `CCc1c(F)ccc2cc(O)cc(N3CCc4c(nc(OC[C@@]56CCCN5C[C@H](F)C6)nc4N4CCC[C@@](C)(O)C4)C3)c12` [Example 2, (R)-1-(7-(8-ethyl-7-fluoro-3-hydroxynaphthalen-1-yl)-2-(((2R,7aS)-2-fluorohexahydro-1H-pyrrolizin-7a-yl)methoxy)-5,6,7,8-tetrahydropyrido[3,4-d]pyrimidin-4-yl)-3-methylpiperidin-3-ol], in assay [8], the IC50 was at most 2 nM.
In assay [1], `CCc1c(F)ccc2cc(O)cc(N3CCc4c(nc(OC[C@@]56CCCN5C[C@H](F)C6)nc4N4CCCn5nc(C(=O)N(C)C)c(C)c5C4)C3)c12` [Example 189, 5-(7-(8-ethyl-7-fluoro-3-hydroxynaphthalen-1-yl)-2-(((2R,7aS)-2-fluorotetrahydro-1H-pyrrolizin-7a(5H)-yl)methoxy)-5,6,7,8-tetrahydropyrido[3,4-d]pyrimidin-4-yl)-N,N,3-trimethyl-5,6,7,8-tetrahydro-4H-pyrazolo[1,5-a][1,4]diazepine-2-carboxamide] showed an IC50 of at most 2 nM.
As for `Oc1cc(N2CCc3c(nc(OC[C@@]45CCCN4C[C@H](F)C5)nc3N3CC4CC(O)CC3C4)C2)c2c(Cl)c(F)ccc2c1` (single isomer, unassigned) [Example 77], the IC50 is 9110 nM in assay [4], 8300 nM in assay [5], 2660 nM in assay [6] and at least 10000 nM in assay [7].
